We go through 6 compounds from patent US7517857B2, “Immune-modulating peptide” (POSCO, priority 2002, dated 2009).

Where a SMILES comes first, the peptide text is derived from it. [ ]: non-standard residue; d: D form.

Type in all cases: cell-based
Test [1] addresses T1, FPRL1 (Homo sapiens, UniProt P25090).
T1 construct: expressed in transfected cells; host or cells: RBL-2H3 (rat basophilic leukemia) cells, G418-selected
T1 sequence (P25090 1-351): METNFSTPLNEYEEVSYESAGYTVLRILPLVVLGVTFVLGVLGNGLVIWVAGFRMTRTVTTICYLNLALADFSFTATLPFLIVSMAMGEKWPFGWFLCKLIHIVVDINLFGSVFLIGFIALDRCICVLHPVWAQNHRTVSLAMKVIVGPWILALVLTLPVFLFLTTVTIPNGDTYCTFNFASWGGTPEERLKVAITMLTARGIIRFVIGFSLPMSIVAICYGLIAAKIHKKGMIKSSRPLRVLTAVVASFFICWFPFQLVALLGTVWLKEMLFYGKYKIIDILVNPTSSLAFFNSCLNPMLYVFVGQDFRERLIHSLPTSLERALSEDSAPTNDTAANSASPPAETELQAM
The test can be described thus: ERK phosphorylation in FPRL1-expressing RBL-2H3 cells (immunoblot). The conditions noted are these: pretreatment prior to 1 μM WKYMVm, PTX 100 ng/ml, LY294002 50 μM, GFX 5 μM, BAPTA/AM 10 μM, PD98059 50 μM. The method, then: (§1) Cultured RBL-2H3 cells were aliquoted into 2×10^6 cells and stimulated with the indicated concentrations of WKYMVm and the peptides of the present invention for the indicated lengths of time. FPR- or FPRL1-expressing RBL-2H3 cells were stimulated with 1 μM WKYMVm for various periods of time (FIG. 3A). Two cells were preincubated with a vehicle or 100 ng/ml of PTX (24 hr), 50 μM of LY294002 (15 min), 5 μM of GFX (15 min), 10 μM BAPTA/AM (60 min), or 50 μM PD98059 (60 min) prior to 1 μM of WKYMVm treatment (FIG. 3B). FPR- or FPRL1-expressing RBL2H3 cells were stimulated with 10 μM of the peptides of the present invention for 2 min or 5 min, respectively (FIG. 3C).
(§2) After stimulation, the cells were washed with serum-free RPMI and lysed in a lysis buffer (20 mM Hepes, pH 7.2, 10% glycerol, 150 mM NaCl, 1% Triton X-100, 50 mM NaF, 1 mM Na3VO4, 10 μg/ml leupeptin, 10 μg/ml aprotinin, and 1 mM phenylmethylsulfonyl fluoride). The detergent-insoluble materials were pelleted by centrifugation (12,000×g, 15 min, at 4° C.), and the soluble supernatant fraction was removed and stored at −80° C. or used immediately. Protein concentrations in the lysates were determined using the Bradford protein assay reagent.
(§3) Each sample ([…] of protein) was subjected to 10% SDS-PAGE and phosphorylated ERK was determined by an immunoblot analysis with an anti-phospho-ERK antibody. Protein samples were prepared for electrophoresis by addition of a concentrated sample buffer. The portions in the samples were then separated by an 10% SDS-polyacrylamide gel using the buffer system described by Laemmli (17).
(§4) Following the electrophoresis, a western blot analysis with an anti-ERK2 antibody was performed to confirm that the same amounts of samples were used for the experiments. The proteins were blotted onto nitrocellulose membranes. The nitrocellulose membranes were then blocked by incubation with TBS (Tris-buffered saline, 0.05% Tween-20) containing 5% non-fat dry milk. Subsequently, the membranes were incubated with anti-phospho-ERK antibody, anti-phospho-Akt antibody or anti-Akt antibody washed with TBS. For a PKC translocation assay, an antibody for PKC isozyme-specific was incubated. Antigen-antibody complexes were visualized after incubating the membrane with a 1:5000 diluted goat anti-rabbit IgG or goat anti-mouse IgG antibody coupled to horseradish peroxidase and using the enhanced chemiluminescence detection system.
On the technique in general: A western blot detects proteins with antibodies after separation by electrophoresis.

Test [2] concerns the target T2, FPR (Homo sapiens, UniProt P21462).
T2 construct: expressed in transfected cells; host or cells: RBL-2H3 (rat basophilic leukemia) cells, G418-selected
T2 sequence (P21462 1-350): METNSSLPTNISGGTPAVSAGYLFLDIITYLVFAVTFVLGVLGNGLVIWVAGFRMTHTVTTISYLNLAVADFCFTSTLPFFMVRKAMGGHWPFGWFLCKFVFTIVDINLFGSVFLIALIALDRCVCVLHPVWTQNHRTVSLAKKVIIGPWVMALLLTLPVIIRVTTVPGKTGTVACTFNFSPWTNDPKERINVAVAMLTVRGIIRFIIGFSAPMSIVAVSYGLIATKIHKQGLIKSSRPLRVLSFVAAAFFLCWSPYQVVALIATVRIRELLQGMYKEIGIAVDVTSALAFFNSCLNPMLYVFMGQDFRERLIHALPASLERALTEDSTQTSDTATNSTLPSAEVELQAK
The test can be described thus: ERK phosphorylation in FPR-expressing RBL-2H3 cells (immunoblot). The note with it: pretreatment prior to 1 μM WKYMVm, PTX 100 ng/ml, LY294002 50 μM, GFX 5 μM, BAPTA/AM 10 μM, PD98059 50 μM. The method, then: as §1, §2, §3, §4

Test [3] concerns the target T1, FPRL1. The test can be described thus: Chemotaxis of FPRL1-expressing RBL-2H3 cells (modified Boyden chamber). The note with it: FPRL1 cells; 50 μM LY294002 (15 min), 50 μM PD98059 (60 min); 1 μM WKYMVm. The method, then:
(§5) Chemotaxis assays were performed using multiwell chambers (modified Boyden chamber assay) (Neuroprobe Inc., Gaithersburg, Md.) (18). Briefly, polycarbonate filters (8 μm pore size) were precoated with 50 μg/ml of rat type I collagen (Collaborative Biomedicals) in a HEPES-buffered RPMI 1640 medium. A dry coated filter was placed on a 96-well chamber containing different concentrations of peptides. RBL-2H3 cells expressing FPR or FPRL1 were suspended in RPMI at a concentration of 1×10^6 cells/ml of serum-free RPMI, and 25 μl of the suspension were placed onto the upper well of the 96-well chemotaxis chamber. After incubation for 4 hours at 37° C., non-migrated cells were removed by scraping them out, and cells that migrated across the filter were dehydrated, fixed, and stained with hematoxylin (Sigma, St. Louis, Mo.). The stained cells in five randomly chosen high power fields (HPF) (400×) in that well were then counted. […] The numbers of migrated cells were determined by counting them in a high power field (400×). The Data are presented as means ±SE of three independent experiments each performed in duplicate. The effect of the peptides of the present invention on cellular chemotaxis in FPR- or FPRL1-expressing RBL-2H3 cells was measured. Various concentrations of each peptide were used for the chemotaxis assay with FPR- or FPRL1-expressing RBL-2H3 cells. The numbers of migrated cells were determined by counting them in a high power field (400×). The Data are presented as means ±SE of two independent experiments each performed in duplicates.

For test [4], the target named is T2, FPR. The test can be described thus: Chemotaxis of FPR-expressing RBL-2H3 cells (modified Boyden chamber). The conditions noted are these: FPR cells; 50 μM LY294002 (15 min), 50 μM PD98059 (60 min); 1 μM WKYMVm. The method, then:
as §5

In test [5] the test system is human neutrophils. The test can be described thus: Superoxide generation in human neutrophils (cytochrome c reduction). The conditions noted are these: for O^2− (nmol/10^6 cells), superoxide generation: cytochrome c reduction. The method, then:
Peripheral blood leukocyte concentrates were donated by the Ulsan Red Cross Blood Center (Ulsan, Korea). Human neutrophils were isolated according to the standard procedures of dextran sedimentation, hypotonic lysis of erythrocytes, and a lymphocyte separation medium gradient as described above (9). The isolated human neutrophils were then used promptly.
The activity of the peptides, WKYMVm, peptides of SEQ ID NOs: 1 to 24, and wkymvm on superoxide generation in human neutrophils was measured. Superoxide anion generation was quantified by measuring reduction of cytochrome c using a microtiter 96-well plate ELISA reader (Bio-Tekinstruments, EL312e, Winooski, Vt.) as described (14). The human neutrophils (1×10^6 cells/100 μl of RPMI 1640 medium per well of a 96-well plate) were preincubated with 50 μM cytochrome c at 37° C. for 1 min and then incubated with the indicated concentrations of peptides. The superoxide generation was measured as a change in light absorption at 550 nm over 5 minutes at 1 min intervals. From at least four independent experiments, peptides with active amino acids at each position were chosen.

The target in test [6] is T2, FPR. The test can be described thus: [Ca2+]i increase in FPR-expressing RBL-2H3 cells (fura-2).
For test [7], the target named is T1, FPRL1. The test can be described thus: [Ca2+]i increase in FPRL1-expressing RBL-2H3 cells (fura-2). The method, then:
[…] The level of [Ca^2+]i was determined fluorometrically by Grynkiewicz's method using fura-2/AM (15). Briefly, prepared cells were incubated with 3 μM fura-2/AM at 37° C. for 50 min in a fresh serum-free RPMI 1640 medium under continuous stirring. 2×10^6 cells were aliquoted for each assay in Ca^2+-free Locke's solution (154 mM NaCl, 5.6 mM KCl, 1.2 mM MgCl2, 5 mM HEPES, pH 7.3, 10 mM glucose, and 0.2 mM EGTA). Fluorescence changes at the dual excitation wavelengths of 340 nm and 380 nm and the emission wavelength of 500 nm were measured, and the calibrated fluorescence ratio was translated into [Ca^2+]i. The peak level of the increased [Ca^2+]i was monitored.
[…] The level of [Ca^2+]i was determined by the same procedures as above. The peak level of the increased [Ca^2+]i was monitored.

Test [8] deals with T1, FPRL1. The test can be described thus: Exocytosis: β-hexosaminidase secretion in FPRL1-expressing RBL-2H3 cells. The conditions noted are these: FPRL1 cells; 10 μM of each peptide (WKYMVm also various concentrations). Here is the method:
Granule secretion is one of the most important function of mast cells (20). The effect of WKYMVm on granule secretion was checked by measuring β-hexosaminidase secretion as described above (18). Briefly, RBL-2H3 cells (2×10^5/well) expressing FPR or FPRL1 were cultured overnight in a 24-well tissue culture plate. The cells were washed twice with Tyrode's buffer (137 mM NaCl, 12 mM NaHCO3, 5.6 mM glucose, 2.7 mM KCl, 1 mM CaCl2, 0.5 mM MgCl2, 0.4 mM NaH2PO4, 0.1g/100 ml BSA, and 25 mM HEPES, pH 7.4) and stimulated with each peptide. Various concentrations of WKYMVm were treated in FPR- or FPRL1-expressing RBL-2H3 cells (FIG. 5A). 1 μM of WKYMVm was used to stimulate two cell lines in the absence or presence of 10 μM BAPTA/AM (FIG. 5B). The reaction was terminated 20 min after stimulation by placing the plate on ice. Secretion of β-hexosaminidase into the medium was determined by incubating 50 μl of supernatant or cell lysate with 25 μl of 5 mM p-nitrophenyl-N-acetyl-β-D-glucosamide in 0.1 M sodium citrate buffer (pH 3.8) at 37° C. for 2 hr. At the end of the incubation, 50 μl of 0.4 M Na2CO3 were added. Absorbance was monitored at 405 nm. Data are means ±S.E. of a single representative of three experiments performed in triplicate. Values (means ±S.E.) were expressed as a percent of total β-hexosaminidase present in the cells.
10 μM of each peptide was treated in FPR- (FIG. 6A) or FPRL1-expressing RBL-2H3 cells (FIG. 6B). The peptide-induced secretion of β-hexosaminidase was determined as above. Data are means ±S.E. of a single representative of three experiments performed in triplicate.

Take `CN(C)CCCn1cc(C2=C(c3c[nH]c4ccccc34)C(=O)NC2=O)c2ccccc21` [GF109203X]: the “effect of inhibitor pretreatment on WKYMVm-induced ERKs activation” value in test [1] and in test [2] was “could not effect WKYMVm-induced ERK activation” in each case.
For the compound `COc1cccc(-c2cc(=O)c3ccccc3o2)c1N` [PD98059, reference compound], the “effect of inhibitor pretreatment on WKYMVm-induced ERKs activation” value in test [1] and in test [2] was “sensitive” in each case. Also, the “effect of inhibitor pretreatment on WKYMVm-induced cellular chemotaxis” value in test [3] and in test [4] was “sensitive” throughout.
As for `Cn1cc(C2=C(c3cn(CCCSC(=N)N)c4ccccc34)C(=O)NC2=O)c2ccccc21` [Ro-31-8220], the “effect of inhibitor pretreatment on WKYMVm-induced ERKs activation” value in test [1] and in test [2] was “could not effect WKYMVm-induced ERK activation” in each case.
With `CSCC[C@H](NC(=O)[C@H](Cc1c[nH]c2ccccc12)NC(=O)[C@H](CCCCN)NC(=O)[C@@H](N)Cc1c[nH]c2ccccc12)C(=O)N[C@H](C(=O)N[C@H](CCSC)C(N)=O)C(C)C` [WKWMVm-NH2, Trp-Lys-Trp-Met-Val-D-Met-NH2] (H-WKWMV[dM]-NH2; N-terminus assumed), in test [5] (10 μM concentration), the “superoxide generation” value is on record as “more potent activity than WKYMVm”. Besides, the “O^2− (nmol/10^6 cells), superoxide generation” value in test [5] (peptide 100 nM) is given as 11.5 ± 0.97 nmol/10^6 cells; in test [5] (peptide 10 μM), 65.0 ± 12.10 nmol/10^6 cells. The “[Ca^2+]i increasing activity” value is “more improved affinity for the FPR against the peptide WKYMVm” in test [6] and “higher affinity to FPRL1” in test [7].
On to `CSCC[C@H](NC(=O)[C@H](Cc1ccc(O)cc1)NC(=O)[C@H](CCCCN)NC(=O)[C@@H](N)Cc1c[nH]c2ccccc12)C(=O)NCC(=O)N[C@H](CCSC)C(N)=O` [WKYMGm-NH2, Trp-Lys-Tyr-Met-Gly-D-Met-NH2] (H-WKYMG[dM]-NH2; N-terminus assumed), for which the results for the “O^2− (nmol/10^6 cells), superoxide generation” value in test [5] (peptide 100 nM) and in test [5] (peptide 10 μM) were 1.1 ± 0.05 nmol/10^6 cells and 27.3 ± 2.61 nmol/10^6 cells, respectively. Also, the “[Ca^2+]i increasing activity” value was “did not effect a [Ca^2+]i increase until 20 μM treatment” in test [6] and “showed [Ca^2+]i-increasing activity in FPRL1 cells, with a little lower affinity to FPRL1” in test [7]. Moreover, the “EC50 (nM), intracellular calcium increase” value in test [6] (fura-2 loaded) was “inactive”.
With `CSCC[C@H](NC=O)C(=O)N[C@@H](CC(C)C)C(=O)N[C@@H](Cc1ccccc1)C(=O)O` [fMLF, N-formyl-methionyl-leucyl-phenylalanine], in test [8], the “granule secretion / β-hexosaminidase release (words)” value is “but not fMLF or wkymvm, stimulated granule secretion”.
